{"source": "paper PMC9697349", "about": "“Mouse Pharmacokinetics and In Vitro Metabolism of SH-11037 and SH-11008, Synthetic Homoisoflavonoids for Retinal Neovascularization” (Pharmaceutics, 2022)", "key": {"[1]": {"test_system": "hydrolysis of SH-11037 in dog plasma", "assay_type": "in vitro ADME", "conditions": "beagle, 2 h, 1 µM, pH 7.4", "procedure": "(§1) Chemical inhibition assay was conducted in mouse, dog, and human plasma and mouse eye homogenate to identify the enzyme(s) involved in the hydrolysis of SH-11037. BW284c51 [16], DTNB [17], EPZ [18], and BNPP [19, 20] were used as selective inhibitors of acetylcholinesterase (AChE), paraoxonase 1 (PON1), butyrylcholinesterase (BchE), and carboxylesterase (CES), respectively. Mouse eyes (male ICR mouse, 8 weeks old) taken immediately after CO2 asphyxiation were homogenized by an electric tissue homogenizer (Tissue Master-125, Omni International, Kennesaw, GA, USA) in an equal amount of 0.1 M potassium phosphate buffer (pH 7.4) on ice. The resulting homogenate was then centrifuged at 3000× g for 20 min. The supernatant was stored at −80 °C until the experiment. DMSO stock solutions of the inhibitors (0.4, 4 and 40 mM) were mixed with plasma diluted 3-fold with 0.1 M phosphate buffer (pH 7.4) to a final volume of 160 μL and final inhibitor concentrations of 0.01, 0.1, and 1 mM. The supernatant of mouse eye homogenate was treated similarly with only BNPP as the inhibitor and a single inhibitor concentration of 1 mM. The resulting pre-incubation solutions were then incubated for 2 h at 37 °C in a shaking water bath. SH-11037 (40 μM) in 50 vol% aqueous CH3CN was mixed with the pre-incubation solutions to a final volume of 160 μL and a final concentration of 1 μM. The resulting solutions were then incubated at 37 °C in a shaking water bath. The incubations were terminated at selected times by adding 160 µL of ice-cold CH3CN containing glipizide (500 ng/mL) as the IS. The resulting mixture was vortexed, sonicated, and centrifuged at 3000× g for 20 min. Aliquots of the supernatant were subjected to LC-MS/MS analysis described below in Section 2.6.2.\n(§2) The LC-MS/MS system consisted of Agilent 1290 Infinity HPLC system and Agilent 6530 Accurate-Mass Quadrupole Time-of-Flight (Q-TOF) mass spectrometer equipped with dual AJS ESI ion source (Agilent Technologies Korea, Seoul, Korea). Chromatographic separation was performed on an Agilent Eclipse Plus C18 column (2.1 × 100 mm, 3.5 μm) with a Phenomenex Security Guard C18 guard column (4 × 20 mm) maintained at 40 °C. The mobile phase consisted of 0.1% formic acid in deionized water (A) and 0.1% formic acid in CH3CN (B): 0~2 min 5% B, 2~7 min to 95% B, and 7~10 min 95% B. Total run time including a 5 min equilibration time was 15 min. The flow rate was 0.4 mL/min. The injection volume was 5 µL. The mass spectrometer was operated in a positive Auto MS/MS scan mode with a full scan mass range of m/z 100–1000, fragmentor voltage 150 V, and CE 30 eV, selecting the two most intense precursor ions for collision-induced dissociation. Putative metabolites were identified using Agilent Mass Hunter Metabolite ID software (ver.B.04.00) followed by manual interpretation of the spectral data. Chromatograms and mass spectra were extracted using Agilent Mass Hunter Qualitative Analysis software (ver. B.05.00)."}, "[2]": {"assay_type": "in vitro ADME", "conditions": "male, ICR, mouse, 1 min, 1 µM, pH 7.4", "procedure": "as §1, §2"}, "[3]": {"test_system": "hydrolysis of SH-11037 in mouse plasma", "assay_type": "in vitro ADME", "conditions": "ICR, mouse, 1 min, 1 µM, pH 7.4", "procedure": "as §1, §2"}, "[4]": {"assay": "Stability of SH-11037 in mouse plasma", "assay_type": "in vitro ADME", "conditions": "ICR, pH 7.4, SH-11037 1 µM, 37 °C, read-out: half-life (t1/2) of hydrolysis to SH-11008", "procedure": "SH-11037 (1 μM) was incubated in triplicate in 0.1 M phosphate buffer (pH 7.4) or in mouse, dog, and human plasma to investigate its stability. SH-11037 (40 μM) in 50 vol% aqueous CH3CN was mixed with 0.1 M phosphate buffer (pH 7.4) or plasma diluted 3-fold with 0.1 M phosphate buffer (pH 7.4) to a final volume of 160 μL and a final concentration of 1 μM. The resulting solutions were then incubated at 37 °C in a shaking water bath. The incubations were terminated at selected times by adding 160 µL of ice-cold CH3CN containing glipizide (500 ng/mL) as the internal standard (IS). The resulting mixture was vortexed, sonicated, and centrifuged at 3000× g for 20 min. Aliquots of the supernatant were subjected to LC-MS/MS analysis described below in Section 2.6.2.\nThe LC-MS/MS system consisted of Agilent 1290 Infinity HPLC system and Agilent 6530 Accurate-Mass Quadrupole Time-of-Flight (Q-TOF) mass spectrometer equipped with dual AJS ESI ion source (Agilent Technologies Korea, Seoul, Korea). Chromatographic separation was performed on an Agilent Eclipse Plus C18 column (2.1 × 100 mm, 3.5 μm) with a Phenomenex Security Guard C18 guard column (4 × 20 mm) maintained at 40 °C. The mobile phase consisted of 0.1% formic acid in deionized water (A) and 0.1% formic acid in CH3CN (B): 0~2 min 5% B, 2~7 min to 95% B, and 7~10 min 95% B. Total run time including a 5 min equilibration time was 15 min. […]"}}}
{"compound": "COc1ccc(CC2COc3cc(OC)c(OC)c(OC)c3C2=O)cc1OC(=O)[C@H](Cc1ccccc1)NC(=O)OC(C)(C)C", "note": "(stereo partly shown) [SH-11037]", "values": [{"measurement": "SH-11008 Formation (%), % of SH-11037 converted to SH-11008", "setting": "[1]", "result": "91.7 ± 1.2", "unit": "%"}, {"measurement": "SH-11037 converted to SH-11008", "setting": "[2]", "result": "~ 90%"}, {"measurement": "SH-11008 Formation (%), % of SH-11037 converted to SH-11008", "setting": "[3]", "result": "98.3 ± 2.8", "unit": "%"}, {"measurement": "half-life at 1 µM", "setting": "[4]", "result": 1.08, "unit": "s"}]}
